The record followed here is US5925618A, “Peptides useful as somatostatin antagonists” (American Cyanamid Company, priority 1998, dated 1999).

Square brackets hold non-standard residues; d marks the D form. Peptide text beside a SMILES is read from it.

Experiment [1] has as its system Male Sprague-Dawley rats. In words: Serum growth hormone levels in anaesthetized rats (peptide 1, BIM 23014C). It is filed as in vivo, rat. How it is done:
Evaluation in anaesthetized rats. Male Sprague-Dawley rats are anaesthetized with Sagatal and fitted so as to allow efficient intravenous treatment with control and test compounds as well as frequent blood sampling. Blood samples are tested for growth hormone (GH) levels by radioimmunoassay. Thirty minutes after the initiation of blood sampling, rats are given 5 μg, 25 μg or 50 μg of peptide 1.

In experiment [2] the target is T1, S. cerevisiae (yeast) cells expressing SRIF receptors (Rattus norvegicus, UniProt P30680).
T1 construct: expressed in transfected cells; host or cells: S. cerevisiae strain LY364
T1 sequence (P30680 whole entry): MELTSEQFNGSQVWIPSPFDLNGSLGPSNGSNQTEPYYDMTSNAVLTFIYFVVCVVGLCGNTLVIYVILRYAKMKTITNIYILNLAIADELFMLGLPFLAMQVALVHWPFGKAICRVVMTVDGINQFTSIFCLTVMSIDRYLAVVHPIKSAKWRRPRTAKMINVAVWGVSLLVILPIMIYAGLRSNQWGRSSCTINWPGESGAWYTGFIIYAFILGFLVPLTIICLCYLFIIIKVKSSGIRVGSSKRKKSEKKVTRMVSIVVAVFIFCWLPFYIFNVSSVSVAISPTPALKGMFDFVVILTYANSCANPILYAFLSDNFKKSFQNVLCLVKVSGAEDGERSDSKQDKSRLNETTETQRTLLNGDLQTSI
The experiment is described as follows: Yeast bioassay for SRIF antagonist activity (LY364 cells growing in response to SRIF, zone of growth inhibition). The note with it: Sample type 4th iteration; 10 μL of 5 mg/mL on disk, SRIF 10 nM, read after 3 days. It is filed as cell-based. An excerpt: SRIF antagonist assay using S. cerevisiae (yeast) cells expressing SRIF receptors that grow in response to SRIF
Agar plates containing LY364 cells that are growing in the presence of added SRIF are the basis for a sensitive SRIF antagonist assay, whereby zones of growth inhibition result from the addition of SRIF antagonists to the surface of the agar plate (see L. A. Price, et al., Molecular and Cellular Biology, 15, 6188-6195, 1995, incorporated herein by reference).
In this assay, LY364 cells are grown overnight in 2 mL of synthetic complete(SC) medium (3.4 g/L YNB without amino acids and ammonium sulfate, 10 g/L ammonium sulfate and 1.4 g/L CSM-ura-trp) with glucose (2%) and without uracil and tryptophan. These cells are washed and cultured for 4 to 8 hours in 5 mL of SC medium with lactate (3%) and without uracil and tryptophan, and finally grown overnight in 5 mL of SC medium with galactose (2%) and without uracil and tryptophan. Molten (50° C.) SC agar medium with galactose (2%) and without uracil, tryptophan and histidine is adjusted to pH 6.8 with KOH, mixed with 2×10^4 cells/mL and SRIF (S-14, 10 nM) and poured into square (20×20 cm) petri dishes. Sterile filter disks are placed on the surface of the agar, and saturated with 10 μL of water or DMSO containing 5 mg/mL test peptides. After three days, the plates display a uniform cloudy background of LY264 cells growing in response to the added SRIF. […] This zone is quantified by measuring its diameter (mm), which varies according to the potency of the SRIF antagonist. Those peptides or mixtures of peptides displaying the largest zones of inhibition are further characterized.
Values are compared among samples in the same experiment, as the degree of yeast growth varies somewhat from assay to assay. For the first five sample types, in which progressively less complex mixtures of peptides are found, this assay is the primary determining factor in choosing which samples form the basis of subsequent syntheses.
Plates are read after 3 days. Samples shown in Table I in bold type are chosen for further synthesis. In Table I, all amino acids are D-amino acids and dashes represent undefined amino acid residues.

The target in experiment [3] is T2, rat SSTR2 (Rattus norvegicus, UniProt P30680).
T2 construct: expressed in transfected cells; host or cells: GH4C1 rat pituitary tumor cells
T2 sequence (P30680 whole entry): as above
In words: cAMP accumulation in forskolin-stimulated GH4 C1/SSTR2 cells. The format is cell-based. The note with it: GH4-C1; test peptide 2 μM; read-out: cAMP Assay, Intrinsic activity (percent reversal of SSTR2 activation by SRIF or MK678). The source says:
A primary effect of SRIF upon mammalian cells is the reduction of cyclic adenosine 3',5'-monophosphate(cAMP) levels, via inhibition of adenylyl cyclase. This is the basis of a common assay for SRIF agonists and antagonists, whereby SRIF agonists reduce artificially stimulated cAMP levels, and SRIF antagonists reverse the effect of SRIF. The rat pituitary tumor cell line GH4 C1 predominantly expresses SSTR2, and responds to SRIF and to forskolin, a stimulator of adenylate cyclase (see C. M. Eppler, et al., J. Biol. Chem., 267, 15603-15612, 1992, incorporated herein by reference). A highly sensitive assay for SRIF agonists and antagonists results from additionally transfecting GH4 C1 cells with the cloned rat SSTR2, (see L. A. Price, et al., Molecular and Cellular Biology, 15, 6188-6195, 1995, incorporated herein by reference). This increases the response to SRIF and provides a greater dynamic range for the measurement of SRIF antagonist activity.
Stimulation of cells. GH4 C1 /SSTR2 cells, grown in DMEM with 10% bovine serum, are released from a tissue culture dish by incubation for several minutes at 37° C. with PBS containing 0.5 mM EDTA. Cells are washed in induction buffer (PBS containing 100 μM IBMX (an inhibitor of cAMP breakdown) and 2 mM CaCl2) at room temperature, and resuspended at 2×10^6 /mL in induction buffer. Into each well of a 96-well tray are added 50 μL of a 2× concentration of stimulants in induction buffer. These include (at final concentration) 1.25 μM forskolin, 100 nM SRIF or 10 nM of the SSTR2-selective agonist MK678 and test peptides at various concentrations. To initiate stimulation of the cells, 50 μL (100,000) cells are added to each well, mixed by shaking 10 seconds on a plate shaker and placed at 37° C. for 15 minutes. Stimulation is arrested and cells are lysed by adding 15 μL 0.33N HCl to each well and incubating the plate for 30 minutes at 37° C. Samples are neutralized by addition of 15 μL 0.25N NaOH/50 mM Hepes pH 7.4. Baseline cAMP levels are determined in samples with no added forskolin or SRIF, and each treatment is performed in triplicate.
cAMP assay. To measure accumulated cAMP in the samples, a radioimmunoassay is employed. The scintillation proximity assay (SPA, Amersham, Arlington Heights, Ill.) allows the rapid measurement of ^125 I cAMP bound to a specific antibody without separating bound radioligand from free radioligand. Each of the following reagents (50 μL) are added per well in a 96-well tray: supernatants from the cell stimulation; ^125 I cAMP; SPA beads conjugated to monkey anti-rabbit IgG antibodies; and rabbit anti-cAMP antibodies. For the standard curve, known amounts of cAMP (0.2-12.8 pmol) are added in place of cell supernatants. The 96-well tray is sealed, shaken at room temperature overnight and measured for bound radioligand in a MicroBeta liquid scintillation counter (Wallac, Gaithersburg, Md.). The standard curve is determined for each experiment by performing a nonlinear regression (exponential decay) analysis of cpm measured for the cAMP standards vs. their log concentrations, and test sample values are determined by using Prism software (Graphpad Software Inc., San Diego, Calif.) and are shown in Table II and FIG. 1. FIG. I illustrates the antagonist activity of Peptide 1.
The intrinsic activity of an SRIF antagonist is the percent reversal of the SSTR2, activation by SRIF or MK678, wherein 0% is defined by cAMP levels in samples treated with forskolin plus SRIF or MK678 and 100% is the cAMP level measured after treatment with forskolin alone. Therefore, increased intrinsic activity of a test compound indicates increased antagonist activity of said test compound.
FIG. […]
An inverse agonist is a compound that is not only a pure antagonist (i.e. lacking agonist activity), but also blocks the constitutive activity of an unoccupied receptor. One indication of inverse agonist activity is the ability of a SRIF antagonist to increase cAMP levels in the absence of added SRIF. […]

Regarding `CC(C)[C@@H]1NC(=O)[C@H](CCCCN)NC(=O)[C@@H](Cc2c[nH]c3ccccc23)NC(=O)[C@H](Cc2ccc(O)cc2)NC(=O)[C@@H](NC(=O)[C@H](N)Cc2ccc3ccccc3c2)CSSC[C@@H](C(=O)N[C@H](C(N)=O)[C@@H](C)O)NC1=O` [BIM 23014C, reference compound], the SGH came out at 7.0 ng/mL in experiment [1] (5 μg peptide 1 group, 10 μg BIM 23014C at 60 min, sample 75 min); 11.4 ng/mL in experiment [1] (5 μg peptide 1 group, 60 min (time of 10 μg BIM 23014C dose)); 6.8 ng/mL in experiment [1] (25 μg peptide 1 group, 10 μg BIM 23014C at 60 min, sample 75 min); 13.1 ng/mL in experiment [1] (25 μg peptide 1 group, 60 min (time of 10 μg BIM 23014C dose)); 3.5 ng/mL in experiment [1] (50 μg peptide 1 group, 10 μg BIM 23014C at 60 min, sample 75 min); 17.1 ng/mL in experiment [1] (50 μg peptide 1 group, 60 min (time of 10 μg BIM 23014C dose)). Besides, the “serum GH levels after SRIF agonist” value in experiment [1] (10 μg at 60 minutes) is “induces the expected reduction in serum GH levels”.
Regarding `CC[C@@H](C)[C@@H](NC(=O)[C@@H](Cc1ccccc1)NC(=O)[C@@H](Cc1c[nH]cn1)NC(C)=O)C(=O)N[C@H](CCCNC(=N)N)C(=O)N[C@H](Cc1c[nH]c2ccccc12)C(=O)N[C@H](C)C(N)=O` [His Phe Ile Arg Trp Ala] (Ac-[dH][dF][dI][dR][dW][dA]-NH2), the “Inhibition Zone” value in experiment [2] is on record as 15 mm.
As for `CC[C@@H](C)[C@@H](NC(=O)[C@@H](Cc1ccccc1)NC(=O)[C@@H](Cc1c[nH]cn1)NC(C)=O)C(=O)N[C@H](CCCNC(=N)N)C(=O)N[C@H](Cc1c[nH]c2ccccc12)C(=O)N[C@H](CC(N)=O)C(N)=O` [His Phe Ile Arg Trp Asn] (Ac-[dH][dF][dI][dR][dW][dN]-NH2), the “Inhibition Zone” value in experiment [2] was determined as 15 mm.
For the molecule `CC[C@@H](C)[C@@H](NC(=O)[C@@H](Cc1ccccc1)NC(=O)[C@@H](Cc1c[nH]cn1)NC(C)=O)C(=O)N[C@H](CCCNC(=N)N)C(=O)N[C@H](Cc1c[nH]c2ccccc12)C(=O)N[C@H](CCC(N)=O)C(N)=O` [His Phe Ile Arg Trp Gln] (Ac-[dH][dF][dI][dR][dW][dQ]-NH2), the “Inhibition Zone” value in experiment [2] is 16 mm.
With `CC[C@@H](C)[C@@H](NC(=O)[C@@H](Cc1ccccc1)NC(=O)[C@@H](Cc1c[nH]cn1)NC(C)=O)C(=O)N[C@H](CCCNC(=N)N)C(=O)N[C@H](Cc1c[nH]c2ccccc12)C(=O)NCC(N)=O` [His Phe Ile Arg Trp Gly] (Ac-[dH][dF][dI][dR][dW]G-NH2), the “Inhibition Zone” value in experiment [2] is reported as 13 mm.
Still for that read-out and setting: next, `CC[C@@H](C)[C@@H](NC(=O)[C@@H](Cc1c[nH]c2ccccc12)NC(=O)[C@@H](CCCNC(=N)N)NC(=O)[C@H](NC(=O)[C@@H](Cc1ccccc1)NC(=O)[C@@H](Cc1c[nH]cn1)NC(C)=O)[C@H](C)CC)C(N)=O` [His Phe Ile Arg Trp Ile] (Ac-[dH][dF][dI][dR][dW][dI]-NH2): 16 mm.
For `CC[C@@H](C)[C@@H](NC(=O)[C@@H](Cc1c[nH]c2ccccc12)NC(=O)[C@@H](Cc1c[nH]cn1)NC(C)=O)C(=O)N[C@H](CCCNC(=N)N)C(=O)N[C@H](Cc1c[nH]c2ccccc12)C(=O)N[C@H](Cc1ccccc1)C(N)=O` [Peptide 21, h-w-i-r-w-f] (Ac-[dH][dW][dI][dR][dW][dF]-NH2), the Emax in experiment [3] was found to be 54.7%.
On the same count and under the same terms, then `CC[C@@H](C)[C@@H](NC(=O)[C@@H](Cc1c[nH]cn1)NC(=O)[C@@H](Cc1c[nH]c2ccccc12)NC(C)=O)C(=O)N[C@H](CCCNC(=N)N)C(=O)N[C@H](Cc1c[nH]c2ccccc12)C(=O)N[C@H](Cc1ccccc1)C(N)=O` [Peptide 22, w-h-i-r-w-f] (Ac-[dW][dH][dI][dR][dW][dF]-NH2), with 27.4%; and `CC[C@@H](C)[C@@H](NC(=O)[C@@H](Cc1ccc(O)cc1)NC(=O)[C@@H](Cc1c[nH]c2ccccc12)NC(C)=O)C(=O)N[C@H](CCCNC(=N)N)C(=O)N[C@H](Cc1c[nH]c2ccccc12)C(=O)N[C@H](Cc1ccccc1)C(N)=O` [Peptide 23, w-y-i-r-w-f] (Ac-[dW][dY][dI][dR][dW][dF]-NH2), with 5.64%.
Still for that read-out and setting: next, `CC[C@@H](C)[C@@H](NC(=O)[C@@H](Cc1c[nH]cn1)NC(=O)[C@@H](Cc1ccccc1)NC(C)=O)C(=O)N[C@H](CCCNC(=N)N)C(=O)N[C@H](Cc1c[nH]c2ccccc12)C(=O)N[C@H](Cc1ccccc1)C(N)=O` [Peptide 24, f-h-i-r-w-f] (Ac-[dF][dH][dI][dR][dW][dF]-NH2): 65.2%; `CC[C@@H](C)[C@@H](NC(=O)[C@@H](CCCNC(=N)N)NC(=O)[C@@H](Cc1ccccc1)NC(C)=O)C(=O)N[C@H](CCCNC(=N)N)C(=O)N[C@H](Cc1c[nH]c2ccccc12)C(=O)N[C@H](Cc1ccccc1)C(N)=O` [Peptide 25, f-r-i-r-w-f] (Ac-[dF][dR][dI][dR][dW][dF]-NH2): 10.8%; `CC[C@@H](C)[C@@H](NC(=O)[C@@H](Cc1ccccc1)NC(=O)[C@@H](Cc1c[nH]cn1)NC(C)=O)C(=O)N[C@H](CCCCN)C(=O)N[C@H](Cc1c[nH]c2ccccc12)C(=O)N[C@H](Cc1ccccc1)C(N)=O` [Peptide 27, h-f-i-k-w-f] (Ac-[dH][dF][dI][dK][dW][dF]-NH2): 71.2%.
Still for that read-out and setting: then `CC(=O)N[C@H](Cc1c[nH]cn1)C(=O)N[C@H](Cc1ccccc1)C(=O)N[C@@H](C(=O)N[C@H](CCCNC(=N)N)C(=O)N[C@H](Cc1c[nH]c2ccccc12)C(=O)N[C@H](Cc1ccccc1)C(N)=O)C(C)C` [Peptide 28, h-f-v-r-w-f] (Ac-[dH][dF][dV][dR][dW][dF]-NH2), with 71.2%.
